In paper PMC10463376, “Design, synthesis, in vitro anticancer, molecular docking and SAR studies of new series of pyrrolo[2,3-d]pyrimidine derivatives” (BMC Chemistry, 2023):

Tests used:
BAX = test: ELISA BAX in Paca2 cells; assay type: cell-based, human; conditions: control 3.86
Description: (§1) Elisa assay was used to determine the concentrations of Human caspases-3, -8, Bax, and Bcl2 in PACA2- and A549-treated cells. Also, the concentrations of caspase-8, Bax, and Bcl2 in MCF7-treated cells were detected. The procedures were followed up according to the instructions described in the following kits; Invitrogen human Caspase-3 Elisa Kit, Catalog KHO1091, DRG® human Caspase-8 ELISA Kit, Catalog (EIA-4863), Human Bax ELISA Kit (ab199080) and Human Bcl-2 ELISA Kit (ab119506) respectively. Shortly, the protocol described in the above kits was as followed; at the beginning, all the reagents, samples and standards were prepared. 100 μl of samples or standard were micro pipetted to each well of micro-well strip and kept at room temperature for 2 h. After washing the micro-well strips three times with washing buffer, the prepared antibody (anti-rabbit-IgG-HRP) at a concentration of 100 μl was added to each well at room temperature for 1 h. Then, the micro-well strips were washed again three times. Afterward, the prepared tetramethyl-benzidine (TMB) solution (100 μl) was added to the micro-well strips and kept for 10 min. […] The absorbance of all samples was measured at a wavelength of 460 nm and compared to that of the standard. Curve fitting software was used to plot a standard curve and the concentrations for the unknown samples were measured from the standard curve.

caspase 8 = test: ELISA caspase 8 in Paca2 cells; assay type: cell-based, human; conditions: control 4.85
Description: as §1

## CN1CCN(c2nc(C(Cl)(Cl)Cl)nc3c2c(-c2ccc(Br)cc2)c(Cl)n3-c2ccc(Cl)cc2Cl)CC1 [Compound 17, 5-(4-bromophenyl)-6-chloro-7-(2,4-dichlorophenyl)-4-(4-methylpiperazin-1-yl)-2-(trichloromethyl)-7H-pyrrolo[2,3-d]pyrimidine]
BAX
  BAX level (ELISA): 11.85 pg/mL
Caspase 8
  caspase 8 level (ELISA): 13.86 pg/mL
